The values that follow come from US5443967A, “DNA encoding the cancer associated SCM recognition factor” (priority 1993, dated 1995).

The subject of data set [1] is SCM-responding lymphocytes. The data set can be described thus: SCM-response modifying effect of α-1-PI (SCM test after preincubation and washing). The format is cell-based, human. As to conditions: 2.5 hr α-1-PI + 3X Wash. How it is done:
SCM-responding lymphocytes were isolated from blood samples of a patient with malignant melanoma and from a normal, healthy donor. Half of the lymphocyte suspension from each sample was incubated with 30 nanomoles of α-1-PI per 6×10^6 cells for 2.5 hours at 37° C.; the other half was retained as an untreated control. The cells were then washed three times with PBS. Aliquots from both the untreated controls and the α-1-PI-treated samples were challenged for 40 min with phytohemagglutinin (PHA) or SCM factor. […] The RRSCM was 1.74 in the absence of incubation and 1.68 after incubation.

Data set [2] deals with elastase. The data set can be described thus: Casein-resorufin protease assay: inhibition of elastase by α-1-PI. Type of data set: biochemical. The conditions noted are these: 3.2 μg Elastase + 6.6 μg α-1-PI. The protocol:
(§1) A protease activity using casein-resorufin as a protease substrate was performed to determine the effect of SCM factor on inhibition of the serine proteases trypsin, elastase, and cathepsin G by the serine protease inhibitor α-1-PI. The protocol provided by the manufacturer, Boehringer-Mannheim Biochemica, was followed to assay protease activity. […] However, when SCM factor was added before α-1-PI or simultaneously in a mixture with α-1-PI, it prevented the inhibition of trypsin by α-1-PI. The degree of this effect depended on the quantity of SCM factor added. […] The active portion of the molecule that prevents inhibition of the proteolytic enzymes by α- 1-PI resides within the first seven amino-terminal amino acid residues of the SCM factor. This portion of the molecule is designated "fraction 6" or F6. The effectiveness of equimolar amounts of the peptide F6, as compared to the entire SCM factor molecule (Table 20) in preventing the inhibition of elastase by α-1-PI is shown in Table 22.

Data set [3] deals with T1, cathepsin G (Homo sapiens, UniProt P08311).
T1 sequence (P08311 21-244 limits assumed): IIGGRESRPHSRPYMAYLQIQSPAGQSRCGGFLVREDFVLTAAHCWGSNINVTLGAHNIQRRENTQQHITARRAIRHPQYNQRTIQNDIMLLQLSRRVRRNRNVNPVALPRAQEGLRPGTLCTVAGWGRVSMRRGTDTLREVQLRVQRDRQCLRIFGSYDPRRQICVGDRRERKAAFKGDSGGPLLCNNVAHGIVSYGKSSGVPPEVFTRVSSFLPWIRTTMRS
The data set can be described thus: Casein-resorufin protease assay: inhibition of cathepsin G by α-1-PI. As to conditions: 1 μg Cathepsin G + 6.6 μg α-1-PI; 300 μL. Type of data set: biochemical. The protocol: as §1

Data set [4] deals with trypsin. The data set can be described thus: Casein-resorufin protease assay: inhibition of trypsin by α-1-PI. Type of data set: biochemical. As to conditions: 3 μg Trypsin + 6.6 μg α-1-PI; 300 μL. How it is done: as §1

In the case of “α-1-PI: glycoprotein serine protease inhibitor, 55,000 daltons, single chain of 394 residues”, the RRSCM in data set [1] (lymphocyte donor Healthy) came to 1.68; in data set [1] (lymphocyte donor Malignant Melanoma), 1.8. The results for the “Trypsin Activity in Casein-Resorufin Assay as % of Untreated Control Enzyme” value in data set [2] (300 μL (Table 20)) and in data set [4] were 3.5% and 13.6%, respectively. Further, the “Elastase Activity in Casein-Resorufin Assay as % of Untreated Control Enzyme” value in data set [2] (300 μL (Table 22)) is 3.4%. For the same substance, the “Cathepsin G Activity in Casein-Resorufin Assay as % of Untreated Control Enzyme” value in data set [3] is on record as 20.0%.
